This is an account of results in patent publication US8969577B2, “Curable composition comprising a thermolatent base” (BASF SE, priority 2008, dated 2015).

The nature of the assay: Curing of powder coating formulation, conversion of epoxy groups by ATR-IR. The settings on record: for Conversion at 5′ 130° C. / Conversion 5′ 130° C.: 5 min 130° C.; for Conversion at 5′ 150° C. / Conversion 5′ 150° C.: 5 min 150° C.; for Conversion 5′ 100° C. / Conversion 5′ 130° C. / Conversion 5′ 150° C. / Conversion 5′ 180° C.: Table 4, amount 1 wt. %; for Conversion 5′ 100° C. / Conversion at 5′ 100° C.: 5 min 100° C.; for Conversion 5′ 180° C.: 5 min 180° C.; for Conversion at 15′ 120° C.: 15 min 120° C. The procedure: A powder coating formulation consisting of an acidic functional polyester and an epoxy functional polymer that cures without a catalyst at 200° C. for 20 minutes is used. The solid coating formulation is dissolved at 50% solids in methyl-iso-butyl ketone for ease of application. The curing catalyst is added in varying amounts from 0.5 up to 1.5% by weight, based on solids. The thermolatent compounds are compared with imidazole or compound 1 as a reference base. The formulation is applied at wet thickness 250 μm using a wire bar. The solvent is evaporated at room temperature during 30 minutes, and the coating formulation is cured for given times and at the specified temperature (cf. Tables 2 to 4). The curing progress is evaluated using attenuated total reflection infrared (IR) spectroscopy. The fading of the epoxy-attributable peak at 899-921 cm^−1 in comparison to the stable reference peak at 814-841 cm^−1 is used for the calculation of the conversion of epoxy groups.

Consider `CCNC(=O)OCCNc1ccccn1` [Compound 7], for which, where the note is “amount 1.0 wt. %”, the “Conversion at 5′ 130° C.” value worked out at 14% and the “Conversion at 5′ 150° C.” value came out at 95%. Further, where the note is “amount 1.5 wt. %”, the “Conversion at 5′ 130° C.” value is 29% and the “Conversion at 5′ 150° C.” value amounted to 93%.

On to `c1c[nH]cn1` [imidazole, reference compound], for which the “Conversion 5′ 100° C.” value is reported as 53%, the “Conversion 5′ 130° C.” value is 74%, the “Conversion 5′ 150° C.” value came to 100% and the “Conversion 5′ 180° C.” value is listed as 100%. Besides, under “amount 0.5 wt. %”, the “Conversion at 5′ 100° C.” value was determined as 26%, the “Conversion at 5′ 130° C.” value is listed as 35%, the “Conversion at 5′ 150° C.” value is reported as 100% and the “Conversion at 15′ 120° C.” value was 100%.

Regarding `CC(C)(C)OC(=O)OCCNc1ccccn1` [Compound 3], where the note is “amount 1.0 wt. %”, the “Conversion at 5′ 130° C.” value is on record as 22% and the “Conversion at 5′ 150° C.” value was 94%. Moreover, under “amount 1.5 wt. %”, the “Conversion at 5′ 130° C.” value is on record as 23% and the “Conversion at 5′ 150° C.” value was determined as 100%.

`C1=CC2=NCCN2C=C1` [Compound 1, reference compound]: under “amount 0.5 wt. %”, the “Conversion at 5′ 100° C.” value is 13% and the “Conversion at 15′ 120° C.” value came to 98%.

`CN(C)CCCNc1ccc2ccccc2n1` [Compound 16]: the “Conversion 5′ 100° C.” value was found to be 0%, the “Conversion 5′ 130° C.” value is given as 0%, the “Conversion 5′ 150° C.” value is listed as 20% and the “Conversion 5′ 180° C.” value came to 100%.

With `OCCNc1ccccn1` [Compound 2, 2-(pyridine-2-ylamino)ethanol], for the setting “amount 0.5 wt. %”, the “Conversion at 5′ 130° C.” value is 26% and the “Conversion at 5′ 150° C.” value came to 97%.
